Measured values as given in article PMC6690489 (Bioorganic & medicinal chemistry letters, 2018).

What was measured:
[1] = molecular target: T1, human M4 (Homo sapiens, UniProt P08173); test: calcium mobilization human M4/Gqi5 assay with EC20 acetylcholine; format: cell-based
T1 sequence (P08173 1-479): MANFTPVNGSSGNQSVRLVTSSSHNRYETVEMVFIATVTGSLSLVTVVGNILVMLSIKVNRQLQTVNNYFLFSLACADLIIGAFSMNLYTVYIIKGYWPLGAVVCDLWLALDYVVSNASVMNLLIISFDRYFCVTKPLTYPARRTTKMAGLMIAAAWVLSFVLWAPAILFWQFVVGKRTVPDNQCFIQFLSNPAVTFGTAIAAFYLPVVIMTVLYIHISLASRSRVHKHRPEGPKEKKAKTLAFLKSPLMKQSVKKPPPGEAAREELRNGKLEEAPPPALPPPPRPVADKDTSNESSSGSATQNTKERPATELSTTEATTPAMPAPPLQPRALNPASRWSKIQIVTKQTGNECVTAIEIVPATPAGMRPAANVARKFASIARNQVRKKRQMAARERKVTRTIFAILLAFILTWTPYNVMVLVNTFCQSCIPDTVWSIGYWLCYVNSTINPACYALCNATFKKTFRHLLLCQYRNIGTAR

[2] = predicted hepatic clearance; format: in vitro ADME; conditions: rat
[3] = test system: CYP450; test: CYP450 inhibition profile; format: in vitro ADME

| Structure (SMILES) | predicted hepatic clearance CLhep [2] [mL/min/kg] | IC50 [3] [nM] | further results |
| --- | --- | --- | --- |
| COc1ccc(CNC(=O)c2cc3c(C)c(C)nnc3s2)cc1F [18a] |  |  | loss of potency relative to parent 4 ([1]; des-amino analog vs NH2-bearing 4): ~ 18 fold |
| Cc1nc2sc3c(NCc4ccco4)nn(C)c3c2c(C)c1Cl [27e] | > 67 |  |  |
| COc1ccc(CNc2n[nH]c3c2sc2nc(C)cc(C)c23)cc1 [22a] | 66 | < 5000 |  |
| Cc1nc2sc3c(NCC4CC4)nn(C)c3c2c(C)c1Cl [27d] | > 67 |  |  |

Continued, in another order:

| predicted hepatic clearance CLhep [2] [mL/min/kg] | IC50 [3] [nM] | Structure (SMILES) | further results |
| --- | --- | --- | --- |
| 67.8 |  | COc1ccc(CNc2nn(C)c3c2sc2nnc(C)c(C)c23)cc1 [30a] | EC50 [1]: 44 nM |
|  | > 30000 | Cc1nnc2sc3c(NCc4ccc(S(C)(=O)=O)c(F)c4)nn(C)c3c2c1C [30b] |  |
